In patent US20090099094A1, “Use of Somatostatin Agonists to Treat Medullary Thyroid Carcinoma” (priority 2007, published 2009):

What was measured:
[1] = molecular target: SSTR1 (Homo sapiens, UniProt P30872); assay: SSTR receptor binding affinity (Ki), SSTR1; conditions: read-out: SSTR Specificity Ki SSTR1
[2] = molecular target: SSTR2 (Homo sapiens, UniProt P30874); assay: SSTR receptor binding affinity (Ki), SSTR2; conditions: read-out: SSTR Specificity Ki SSTR2
[3] = molecular target: SSTR3 (Homo sapiens, UniProt P32745); assay: SSTR receptor binding affinity (Ki), SSTR3; conditions: read-out: SSTR Specificity Ki SSTR3
[4] = molecular target: SSTR4 (Homo sapiens, UniProt P31391); assay: SSTR receptor binding affinity (Ki), SSTR4; conditions: read-out: SSTR Specificity Ki SSTR4
[5] = tested on: medullary thyroid carcinoma primary cultures; assay: Calcitonin secretion by MTC primary cultures (IRMA); format: cell-based, human; conditions: 10^−8 M, six hours
Protocol: Primary cultured cells from 18 selected MTC samples were incubated in ninety six well plates for six hours with each SSTR agonist at 10^−8 M. Control cells were treated with vehicle solution. Calcitonin levels in the conditioned medium were measured by immunoradiometric assay (IRMA) among eight replicates in the conditioned medium from treated and untreated (control) primary cultured cells. […] Data are expressed as the mean±SE percent hormone secretion inhibition vs. untreated control cells. *P<0.05 and **P<0.01 vs. control.
(§1) Tissue samples were surgically removed in accordance with the guidelines of the local comnmittees on human research. Thyroid tissue samples were obtained under sterile conditions and immediately minced in RPMI 1640 tissue culture medium. Tissues were incubated with 0.25% trypsin overnight at 4° C. and then dissociated using 0.35% collagenase (Sigma, Milano, ITALY) and 1% trypsin at 37° C. for sixty minutes. Cell suspensions were filtered through double layers of gaus(e and washed twice with serum-free F-12 Ham's Nutrient Modified Medium (F-12; Euroclone Ltd, Wetherby, UNITED KINGDOM). Tumor cells were re-suspended in F-12 with 10% fetal bovine serum and antibiotics, seeded in ninety-six well culture plates (˜2×10^4 cells/well) and incubated at 37° C. in a humidified atmosphere of 5% CO2 and 95% air according to known procedures (Zatelli, M. C. et al., Endocrinology, 2005, 146:2692-8). Approximately twenty-four hours later, the prepared cells were treated with the selected somatostatin agonist and were monitored for hormone secretion and overall viability. Informed consent of the patients was obtained for disclosing clinical investigation and performing the in vitro study.
Calcitonin levels were measured in a conditioned medium from treated and untreated primary cultured cells with the calcitonin-U.S.-IRMA® kit (Biosource Europe, Nivelles, BELGIUM) after a six hour treatment with […] of the selected somatostatin analogs. The intra- and inter-assay variation coefficients were 1.9-2.7% and 1.9-3.3%, respectively. The detection limit was 0.8 pg/ml. Hormone assays were performed in duplicate of conditioned medium from treated cells. Results were obtained by determining the mean value among eight replicates.
In order to investigate the effects of somatostatin analogs on hormone secretion, calcitonin and CgA levels were measured in conditioned media collected from primary cultures derived from the selected eighteen medullary thyroid carcinoma treated with or without each somatostatin analog at 10^−8M for six hours.
According to this criterion, […] as “responders” (group A: primary cultures #3, #5, #6, #7, #11, #12, #13, #14, #15, #16) and nine as “non responders” (group B: primary cultures #1, #2, #4, #8, #9, #10, #17, #18).

[6] = tested on: medullary thyroid carcinoma primary cultures; assay: Cell viability of MTC primary cultures (MTT); format: cell-based, human; conditions: 10^−8 M, forty-eight hours
Protocol: Primary cultured cells from 18 selected MTC samples were incubated in ninety six well plates for forty eight hours with each SSTR agonist at 10^−8 M. Control cells were treated with vehicle solution. Cell viability was measured by a colorimetric method among eight replicates from treated and untreated (control) primary cultured cells. […] Data are expressed as the mean±SE percent cell viability reduction vs. untreated control cells. *P<0.05, and **P<0.01 vs. control.
as §1
The effects of the tested somatostatin analogs on medullary thyroid carcinoma primary culture cell viability were assessed with a Cell Proliferation Kit I MTT® (Roche Diagnostics GmbH, Mannheim, GERMANY) which employs a colorimetric method for determining the number of viable cells in proliferation assays. Primary cultured cells were plated in ninety-six multiwell plates (2×10^4 cells/well) and incubated for forty-eight hours in a medium supplemented with 10% fetal bovine serum in the presence or absence of each somatostatin analog at 10^−8M. Treatments were renewed after the first twenty-four hours of incubation.
In order to investigate the effects of somatostatin analogs on medullary thyroid carcinoma cell viability, an MTT assay was performed in primary cultures derived from the eighteen selected medullary thyroid carcinoma samples, treated with or without each somatostatin analog at […] for forty-eight hours. Percent cell viability reduction compared to a control in each primary culture under treatment with each somatostatin analog is reported in Table 6.

[7] = molecular target: SSTR5 (Homo sapiens, UniProt P35346); assay: SSTR receptor binding affinity (Ki), SSTR5; conditions: read-out: SSTR Specificity Ki SSTR5
[8] = MTC primary culture #1 (non responder)
[9] = MTC primary culture #2 (non responder)
[10] = MTC primary culture #3 (responder)
[11] = MTC primary culture #4 (non responder)
[12] = MTC primary culture #5 (responder)
[13] = MTC primary culture #6 (responder)
[14] = MTC primary culture #7 (responder)
[15] = MTC primary culture #8 (non responder)
[16] = MTC primary culture #9 (non responder)
[17] = MTC primary culture #10 (non responder)
[18] = MTC primary culture #11 (responder)
[19] = MTC primary culture #12 (responder)
[20] = MTC primary culture #13 (responder)
[21] = MTC primary culture #14 (responder)
[22] = MTC primary culture #15 (responder)
[23] = MTC primary culture #16 (responder)
[24] = MTC primary culture #17 (non responder)
[25] = MTC primary culture #18 (non responder)
[26] = group B (lanreotide non-responsive) mean

SSTR5, sequence (P35346 whole entry): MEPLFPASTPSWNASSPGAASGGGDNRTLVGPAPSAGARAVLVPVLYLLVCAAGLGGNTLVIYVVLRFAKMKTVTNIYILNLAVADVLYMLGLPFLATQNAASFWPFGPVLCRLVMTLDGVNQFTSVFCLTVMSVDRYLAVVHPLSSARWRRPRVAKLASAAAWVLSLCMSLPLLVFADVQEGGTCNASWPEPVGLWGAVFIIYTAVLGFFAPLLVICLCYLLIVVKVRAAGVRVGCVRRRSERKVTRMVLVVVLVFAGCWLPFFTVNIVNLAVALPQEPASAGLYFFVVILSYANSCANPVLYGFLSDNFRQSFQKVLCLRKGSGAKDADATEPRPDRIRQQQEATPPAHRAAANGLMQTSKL
SSTR2, sequence (P30874 whole entry): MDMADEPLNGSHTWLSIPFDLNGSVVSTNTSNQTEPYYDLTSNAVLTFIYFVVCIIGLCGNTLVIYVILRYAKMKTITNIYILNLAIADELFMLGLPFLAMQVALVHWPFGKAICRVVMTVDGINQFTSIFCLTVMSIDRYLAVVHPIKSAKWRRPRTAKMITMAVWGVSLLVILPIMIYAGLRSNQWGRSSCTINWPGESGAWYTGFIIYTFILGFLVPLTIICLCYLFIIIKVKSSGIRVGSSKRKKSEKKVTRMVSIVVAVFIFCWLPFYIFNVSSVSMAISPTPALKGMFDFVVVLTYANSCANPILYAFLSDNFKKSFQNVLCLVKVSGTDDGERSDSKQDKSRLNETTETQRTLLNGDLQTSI
SSTR3, sequence (P32745 whole entry): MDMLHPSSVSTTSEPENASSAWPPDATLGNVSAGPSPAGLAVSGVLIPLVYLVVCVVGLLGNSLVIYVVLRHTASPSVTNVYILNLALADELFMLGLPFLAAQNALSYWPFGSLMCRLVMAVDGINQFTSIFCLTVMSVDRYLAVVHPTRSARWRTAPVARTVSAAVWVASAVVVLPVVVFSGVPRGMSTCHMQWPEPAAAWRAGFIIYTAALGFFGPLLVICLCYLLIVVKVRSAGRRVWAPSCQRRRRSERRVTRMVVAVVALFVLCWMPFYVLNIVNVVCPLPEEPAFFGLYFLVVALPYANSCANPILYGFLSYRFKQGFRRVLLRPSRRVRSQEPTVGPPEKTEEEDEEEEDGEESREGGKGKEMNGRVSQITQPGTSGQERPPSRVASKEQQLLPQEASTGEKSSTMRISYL
SSTR4, sequence (P31391 whole entry): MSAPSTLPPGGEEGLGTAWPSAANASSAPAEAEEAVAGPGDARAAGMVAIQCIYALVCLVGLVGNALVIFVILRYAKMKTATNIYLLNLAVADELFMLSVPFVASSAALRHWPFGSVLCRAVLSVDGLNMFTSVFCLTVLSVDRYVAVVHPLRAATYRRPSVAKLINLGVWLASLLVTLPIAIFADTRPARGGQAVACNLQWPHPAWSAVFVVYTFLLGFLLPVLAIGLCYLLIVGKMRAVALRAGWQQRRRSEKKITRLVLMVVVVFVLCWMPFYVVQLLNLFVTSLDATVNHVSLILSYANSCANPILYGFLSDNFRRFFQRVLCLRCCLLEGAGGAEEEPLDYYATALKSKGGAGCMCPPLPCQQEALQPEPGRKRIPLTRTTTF
SSTR1, sequence (P30872 whole entry): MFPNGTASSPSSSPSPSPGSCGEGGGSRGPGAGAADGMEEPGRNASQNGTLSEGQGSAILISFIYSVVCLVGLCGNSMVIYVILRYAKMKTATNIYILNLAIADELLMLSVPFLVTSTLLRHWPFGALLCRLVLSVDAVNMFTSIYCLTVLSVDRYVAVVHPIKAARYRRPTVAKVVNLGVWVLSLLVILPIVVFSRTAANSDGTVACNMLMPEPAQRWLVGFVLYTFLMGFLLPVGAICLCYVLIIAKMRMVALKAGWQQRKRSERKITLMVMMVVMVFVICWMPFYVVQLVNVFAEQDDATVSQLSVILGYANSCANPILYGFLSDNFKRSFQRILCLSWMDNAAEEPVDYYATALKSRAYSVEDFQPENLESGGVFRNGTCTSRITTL

## CC(C)[C@@H]1NC(=O)[C@H](CCCCN)NC(=O)[C@@H](Cc2c[nH]c3ccccc23)NC(=O)[C@H](Cc2ccc(O)c(I)c2)NC(=O)[C@@H](NC(=O)[C@H](N)Cc2ccccc2)CSSC[C@@H](C(=O)N[C@H](C(N)=O)[C@@H](C)O)NC1=O [Cmpd #4, D-Phe-[Cys-Tyr(I)-D-Trp-Lys-Val-Cys]-Thr-NH2]
[1]
  Ki: 1020 nM
[2]
  Ki: 0.29 nM
[3]
  Ki: 133 nM
[4]
  Ki: > 1000 nM
[5]; [8]
  % CT secretion inhibition vs. control: −10.5%
[5]; [9]
  % CT secretion inhibition vs. control: 5.2%
[5]; [10]
  % CT secretion inhibition vs. control: −33.9%
[5]; [11]
  % CT secretion inhibition vs. control: −10.3%
[5]; [12]
  % CT secretion inhibition vs. control: −15.7%
[5]; [13]
  % CT secretion inhibition vs. control: −12.6%
[5]; [14]
  % CT secretion inhibition vs. control: −42.6%
[5]; [15]
  % CT secretion inhibition vs. control: 3.6%
[5]; [16]
  % CT secretion inhibition vs. control: −5.2%
[5]; [17]
  % CT secretion inhibition vs. control: 12.8%
[5]; [18]
  % CT secretion inhibition vs. control: −15.7%
[5]; [19]
  % CT secretion inhibition vs. control: −18.5%
[5]; [20]
  % CT secretion inhibition vs. control: −42.8%
[5]; [21]
  % CT secretion inhibition vs. control: 8.4%
[5]; [22]
  % CT secretion inhibition vs. control: −30.6%
[5]; [23]
  % CT secretion inhibition vs. control: −16.2%
[5]; [24]
  % CT secretion inhibition vs. control: 12.7%
[5]; [25]
  % CT secretion inhibition vs. control: 5.3%
[5]; group A (lanreotide responsive) mean
  calcitonin secretion, change vs. control (signed, negative = reduced): −25%
[5]; [26]
  calcitonin secretion, change vs. control (signed, negative = reduced): not reduced
[6]; [8]
  % cell viability reduction vs. control: −14.7%
[6]; [9]
  % cell viability reduction vs. control: −38.3%
[6]; [10]
  % cell viability reduction vs. control: 13.3%
[6]; [11]
  % cell viability reduction vs. control: −11.3%
[6]; [12]
  % cell viability reduction vs. control: 24.7%
[6]; [13]
  % cell viability reduction vs. control: −10.8%
[6]; [14]
  % cell viability reduction vs. control: 5.7%
[6]; [15]
  % cell viability reduction vs. control: −20.6%
[6]; [16]
  % cell viability reduction vs. control: −32.1%
[6]; [17]
  % cell viability reduction vs. control: 6.5%
[6]; [18]
  % cell viability reduction vs. control: 1.4%
[6]; [19]
  % cell viability reduction vs. control: 7.4%
[6]; [20]
  % cell viability reduction vs. control: 9.3%
[6]; [21]
  % cell viability reduction vs. control: 1.3%
[6]; [22]
  % cell viability reduction vs. control: 12.6%
[6]; [23]
  % cell viability reduction vs. control: 15.0%
[6]; [24]
  % cell viability reduction vs. control: −2.6%
[6]; [25]
  % cell viability reduction vs. control: −7.7%
[6]; [26]
  cell viability, change vs. control (signed, negative = reduced): −13%

## CCCN1C[C@H](CSCC(=O)NCCCC[C@@H](NC(=O)CSC[C@@H]2C[C@@H]3c4cccc5[nH]cc(c45)C[C@H]3N(CCC)C2)C(=O)N[C@H]2CSSC[C@@H](C(=O)N[C@H](C(N)=O)[C@@H](C)O)NC(=O)[C@H](CC)NC(=O)[C@H](CCCCN)NC(=O)[C@@H](Cc3c[nH]c4ccccc34)NC(=O)[C@H](Cc3ccc(O)cc3)NC2=O)C[C@@H]2c3cccc4[nH]cc(c34)C[C@H]21 [Dop2-D-Lys(Dop2)-c[Cys-Tyr-D-Trp-Lys-Abu-Cys]-Thr-NH2]
[7]
  Ki: 41.5 nM
